Measured values as given in patent publication US20220387483A1, “USE OF IODIDE COMPOUNDS FOR THE TREATMENT AND PREVENTION OF CHEMOTHERAPY-ASSOCIATED CACHEXIA AND CARDIOTOXICITY” (FARADAY PHARMACEUTICALS, INC., priority 2019, published 2022).

Legend:
[1] = system: Balb/c mice bearing subcutaneous CT26 tumors; experiment: cancer cachexia model of Balb/c mice bearing subcutaneous CT26 tumors; format: in vivo; details: for TNF-α level / creatine kinase level / serum LDL level / serum VLDL level / serum triglyceride level / % tumor grow inhibition (TGI): vs vehicle control; for % tumor grow inhibition (TGI): day 20; for IL-6 level / kidney weight / lung weight / spleen weight / serum levels of TNF-α: test groups vs vehicle control; for IL-6 level: FIG. 10B; for kidney weight / lung weight / spleen weight / serum levels of TNF-α: significance; for serum levels of TNF-α: FIG. 10A; for body weight: throughout the experimental period
Procedure: (§1) The anti-cachectic activity of iodide was evaluated in a cancer cachexia model of Balb/c mice bearing subcutaneous CT26 tumors. NaI was administered as FDY-5301, which is sodium iodide solubilized in water and balanced with sodium chloride to create an isotonic saline solution, with a pH between 7.0 and 9.5. As shown in the experimental design depicted in FIG. 1, when tumor volume reached 100 mm^3, the mice were either left untreated, or treated with one of the following: (i) vehicle control (0.5% CMC); (ii) NaI (FDY-5301) at 2 mg/kg i.v., QD×3 weeks; (iii) bucindolol at 2 mg/kg p.o., QD×3 weeks; or (iv) NaI (FDY-5301) at 40 ug/day slow release via Alzet osmotic pump (flow rate 0.11 uL/h) s.c. for 20 days. On day 14, 1 hour post dosing, blood samples were taken from three animals from groups 2, 3, and 5. On day 20, the animals were humanely euthanized and tumor and animal characteristics were measured. Prior to euthanasia, blood samples were collected for evaluation of biochemical parameters. Following euthanasia, tumor tissue and organs, muscles were collected and weighed.

[2] = system: Balb/c mice bearing subcutaneous CT26 tumors; experiment: muscle histology and morphometry (muscle fiber area) in the CT26 cancer cachexia model; format: in vivo; details: for muscle fiber area, gastrocnemius / muscle fiber area, soleus: histopathological images vs vehicle control; for muscle fiber area, tibialis anterior: vs vehicle control
Procedure: as §1
Morphometric evaluation of transverse sections of muscle fiber area (um2) was performed on tibialis anterior, gastrocnemius, and soleus muscles from the animals described in Example 1, for evaluation of anti-cachectic properties of FDY-5301 and bucindolol in the cancer cachexia model.

[3] = system: cardiotoxicity induced by doxorubicin; experiment: cardiotoxicity induced by doxorubicin chemotherapy, ejection fraction via ultrasound; format: in vivo, C57Bl/6 mice
Procedure: Male C57Bl/6 mice (˜10 weeks old) were given a 15 mg/kg i.p. bolus of doxorubicin to induce cardiotoxicity. Assessment of ejection fraction was performed via ultrasound at baseline (day 0, prior to any doxorubicin administration) and on days 3, 7, 14 or 28 days post administration. Dosing of placebo or FDY-5301 was done in a blinded fashion, as was all ultrasound analysis.
A single 2 mg/kg i.v. bolus of FDY-5301 was administered by the retro orbital (r.o.) route and immediately followed by 15 mg/kg doxorubicin i.p. Placebo treated animals received saline. A Vevo® 2100 imaging system was used to assess cardiac function on days 0 (baseline), 7, 14, & 28.
A single 2 mg/kg i.v. bolus of NaI was administered by the retro orbital (r.o.) route followed immediately by the s.c. implantation of an osmotic pump designed to deliver 2 mg/kg/day of NaI. The mice then received a 15 mg/kg doxorubicin i.p. bolus. Placebo treated animals received saline (and an osmotic pump filled with saline). Cardiac function was assessed on days 0 (baseline), 3, 7 & 14.

[4] = slow release via Alzet osmotic pump

CC(C)(Cc1c[nH]c2ccccc12)NCC(O)COc1ccccc1C#N (stereo not shown) [bucindolol, reference compound]
TNF-α level ([1]; 2 mg/kg p.o.): marginally higher | creatine kinase level ([1]; 2 mg/kg p.o.): higher level | serum LDL level ([1]; 2 mg/kg p.o.): non-significant change | serum VLDL level ([1]; 2 mg/kg p.o.): significant decrease | serum triglyceride level ([1]; bucindolol 2 mg/kg p.o.): significantly lower | % tumor grow inhibition (TGI) ([1]; 2 mg/kg p.o., QD×3 weeks): 24% | IL-6 level [1]: Non-significant | kidney weight [1]: Non-significant | lung weight [1]: Non-significant | spleen weight [1]: Non-significant | serum levels of TNF-α [1]: Non-Significant | body weight ([1]; 2 mg/kg p.o., QD×3 weeks): progressive body weight gain | muscle fiber area, gastrocnemius ([2]; 2 mg/kg p.o.): increased muscle fiber area | muscle fiber area, soleus ([2]; 2 mg/kg p.o.): increased muscle fiber area

[I-].[Na+] [FDY-5301, sodium iodide]
TNF-α level ([1]; 2 mg/kg i.v.): non-significantly lower | creatine kinase level ([1]; 2 mg/kg i.v.): marginal decrease | serum LDL level ([1]; 2 mg/kg i.v.): non-significant change | serum triglyceride level ([1]; 2 mg/kg i.v.): marginally lower | % tumor grow inhibition (TGI) ([1]; 40 ug/day slow release via Alzet osmotic pump s.c.): 23% | % tumor grow inhibition (TGI) ([1]; 2 mg/kg i.v., QD×3 weeks): 31% | TNF-α level [1, 4]: marginally higher | serum LDL level [1, 4]: significant increase | serum VLDL level [1, 4]: significant decrease | serum triglyceride level [1, 4]: significantly lower | creatine kinase level ([1]; slow release): marginal decrease | IL-6 level [1]: Non-significant | kidney weight [1]: Non-significant | lung weight [1]: Non-significant | spleen weight [1]: Non-significant | serum levels of TNF-α [1]: Non-Significant | body weight ([1]; 2 mg/kg i.v., QD×3 weeks): progressive body weight gain | body weight [1, 4]: progressive body weight gain | muscle fiber area, gastrocnemius ([2]; 40 ug/day Alzet pump): increased muscle fiber area | muscle fiber area, soleus ([2]; 40 ug/day Alzet pump): increased muscle fiber area | muscle fiber area, tibialis anterior ([2]; 40 ug/day slow release via Alzet osmotic pump): significant increase | muscle fiber area, tibialis anterior ([2]; 40 ug/day slow release via Alzet osmotic pump, listed as FDY-3501): increased muscle fiber area | muscle fiber area, gastrocnemius ([2]; 2 mg/kg i.v.): increased muscle fiber area | muscle fiber area, soleus ([2]; 2 mg/kg i.v.): increased muscle fiber area | muscle fiber area, tibialis anterior ([2]; 2 mg/kg i.v.): Non-significant | muscle fiber area, tibialis anterior ([2]; 2 mg/kg i.v., listed as FDY-3501): increased muscle fiber area | ejection fraction (EF) ([3]; 2 mg/kg i.v. bolus + s.c. osmotic pump 2 mg/kg/day, 15 mg/kg doxorubicin i.p., by day 14, vs placebo): stabilized EF | ejection fraction ([3]; combined results of bolus and bolus + continuous studies, delivered at the time of chemotherapy): prevents a significant reduction in ejection fraction | change in ejection fraction from baseline ([3]; single 2 mg/kg i.v. bolus then 15 mg/kg doxorubicin i.p., days 7, 14, 28, vs placebo): less of a reduction in change in ejection fraction from baseline
